Test results from patent publication US11786494B2, “Methods of modulation of branched chain acids and uses thereof” (Baylor College of Medicine, priority 2009, dated 2023).
“Also recorded” adds a separate entry of the source.

How the values were obtained:
[1] = test system: phosphorylated E1-α subunit of BCKDC; assay: Western blot of liver extract for phosphorylated E1 subunit of BCKDC; assay type: in vivo, C57B6 mice; conditions: 50 mg/kg/day oral gavage in 3 administrations, 3 days, N=5 per group, p<0.05
Experimental: FIG. 5 is a Western blot analysis of liver extract using an antibody against the phosphorylated form of the E1 subunit of BCKDC from C57B6 mice (N=5 mice per group) treated with phenylbutyrate or placebo. To investigate the effect and mechanism of phenylbutyrate on the BCKD, mice (n=5) were treated with saline or 50 mg/kg/day of phenylbutyrate divided into three administrations for three consecutive days and after three days of treatment they were sacrificed for analyses. Proteins were extracted from mouse livers and a western blot performed using an anti-phosphoserine BCKDC antibody, the anti-BCKDC-E1 antibody, and the anti-BCKDC-E2 antibody. Each lane corresponds to the liver extract from an independent mouse (from #1 to #3).
A post-translational mechanism of regulation of the activity of BCKDC by covalent modification by phosphorylation. In order to investigate the effect and mechanism of phenylbutyrate-mediated increased activity of BCKDC, Buphenyl® or saline were given orally to C57B6 mice (N=5 mice per group) by gavage at the dose of 50 mg/kg/day divided into 3 administrations for 3 consecutive days. After three days of treatment the animals were sacrificed to harvest the liver samples. Proteins were extracted from mouse livers by homogenizing the tissue in a buffer containing 5% SDS and 0.0625 M TrisHCl. […]

[2] = target: T1, mitochondrial branched chain amino transferase (BCATm) (Homo sapiens, UniProt O15382); assay: BCATm activity with purified recombinant enzyme; assay type: biochemical; conditions: pH 8.0, 298 K
T1 sequence (O15382 28-392): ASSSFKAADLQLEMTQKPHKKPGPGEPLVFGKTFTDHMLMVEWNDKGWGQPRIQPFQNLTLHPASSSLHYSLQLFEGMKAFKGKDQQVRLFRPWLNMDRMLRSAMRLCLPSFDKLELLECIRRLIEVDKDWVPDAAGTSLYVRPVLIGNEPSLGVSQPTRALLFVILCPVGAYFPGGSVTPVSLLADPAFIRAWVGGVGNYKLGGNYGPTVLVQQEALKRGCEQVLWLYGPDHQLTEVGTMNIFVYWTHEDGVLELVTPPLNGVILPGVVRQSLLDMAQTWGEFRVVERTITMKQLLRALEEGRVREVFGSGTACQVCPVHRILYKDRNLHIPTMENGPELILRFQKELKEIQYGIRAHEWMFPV
Experimental: (§1) To determine the effect of phenylbutyrate on individual BCAA catabolic enzymes, activities of mitochondrial branched chain amino transferase (BCATm) and BCKDC enzymes were measured with and without phenylbutyrate using purified recombinant enzymes. BCATm generates the BCKA products that are elevated in MSUD and are the substrates for BCKDC. BCATm activity was measured at pH 8.0 and 298 K as described in Example 2. Kinetics of the E1 decarboxylase reaction with and without phenylbutyrate were determined in the presence of an artificial electron acceptor 2, 6-dichlorophenolindophenol (DCPIP). The assay mixture contained 100 mM potassium phosphate, pH 7.5, 2.0 mM MgCl2, 0.2 mM thiamin diphosphate (ThDP) and 0.1 mM DCPIP. The rate of decarboxylation at 30° C. was measured by monitoring the reduction of the dye at 600 nm (24, 25). For the overall BCKDC activity assay, the enzymes were exchanged into phosphate buffer (30 mM potassium phosphate, pH 7.5) containing 5 mM DTT using a PD-10 column and the enzyme concentrations were calculated from the absorption maxima at 280 nm. […] The overall reaction was monitored by formation of NADH at 340 nm. The apparent rate constants (kapp) at different substrate concentrations for all of the above assays were determined from the absorption changes at the individual wavelength maximum. […]

[3] = target: T2, E1 (unphosphorylated) of BCKDC (Homo sapiens, UniProt P12694+P21953); assay: E1 catalyzed decarboxylase activity (DCPIP assay); assay type: biochemical
T2 sequence (P12694 46-445): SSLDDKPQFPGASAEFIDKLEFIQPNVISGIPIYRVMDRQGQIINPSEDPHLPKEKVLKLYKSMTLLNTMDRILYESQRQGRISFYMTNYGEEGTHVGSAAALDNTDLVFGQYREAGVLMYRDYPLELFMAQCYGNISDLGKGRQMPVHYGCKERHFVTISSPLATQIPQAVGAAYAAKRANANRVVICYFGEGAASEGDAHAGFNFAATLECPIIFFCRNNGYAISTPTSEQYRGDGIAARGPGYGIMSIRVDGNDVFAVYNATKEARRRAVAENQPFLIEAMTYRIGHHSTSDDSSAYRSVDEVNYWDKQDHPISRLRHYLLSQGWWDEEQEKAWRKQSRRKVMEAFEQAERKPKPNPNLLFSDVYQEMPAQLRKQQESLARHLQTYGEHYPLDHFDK
T2 sequence (P21953 51-392): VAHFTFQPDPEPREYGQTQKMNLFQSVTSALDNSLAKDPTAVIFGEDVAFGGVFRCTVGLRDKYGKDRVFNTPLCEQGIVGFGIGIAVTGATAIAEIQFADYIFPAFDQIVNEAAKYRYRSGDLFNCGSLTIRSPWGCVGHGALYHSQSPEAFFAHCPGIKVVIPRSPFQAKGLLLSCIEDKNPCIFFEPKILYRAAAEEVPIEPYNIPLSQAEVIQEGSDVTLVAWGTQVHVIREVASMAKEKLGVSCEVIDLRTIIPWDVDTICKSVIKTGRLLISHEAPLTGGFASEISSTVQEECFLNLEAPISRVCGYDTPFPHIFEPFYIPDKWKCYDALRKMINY
Experimental: as §1

- BCATm kinetics including kcat and Km [2]: no effect
- kcat, KMV ([3]; E1 catalyzed decarboxylase activity, [+] Phenylbutyrate): 0.3 ± 0.0167 s⁻¹
- unphosphorylated E1 (fully active enzyme) catalyzed decarboxylation of all three BCKA ([3]; increased kcat, lowered Km): enhanced
SMILES: O=C([O-])CCCc1ccccc1.[Na+] [phenylbutyrate, sodium 4-phenylbutyrate]
- phosphorylated E1-α subunit of BCKDC in liver vs saline treated mice [1]: significant reduction; also recorded: significantly reduced
